Settings: 101.33 kPa, Liquid, Vibrating tube method

NCCN [ethane-1,2-diamine]
Settings	mass density [kg/m3]
324.15 K	867.42
324.65 K	866.94
325.15 K	866.47
325.65 K	865.99
326.15 K	865.51
326.65 K	865.03
327.15 K	864.55
327.65 K	864.07
328.15 K	863.59
328.65 K	863.11
329.15 K	862.63
329.65 K	862.14
330.15 K	861.66
330.65 K	861.18
331.15 K	860.7
331.65 K	860.22
332.15 K	859.74
332.65 K	859.25
333.15 K	858.77
333.65 K	858.29
334.15 K	857.81
334.65 K	857.32
335.15 K	856.84
335.65 K	856.36
336.15 K	855.87
336.65 K	855.39
337.15 K	854.91
337.65 K	854.42
338.15 K	853.93
338.65 K	853.45
339.15 K	852.96
339.65 K	852.48
340.15 K	851.99
340.65 K	851.51
341.15 K	851.02
341.65 K	850.53
342.15 K	850.05
342.65 K	849.56
343.15 K	849.07
343.65 K	848.58
344.15 K	848.1
344.65 K	847.61
345.15 K	847.12
345.65 K	846.63
346.15 K	846.14
346.65 K	845.66
347.15 K	845.17
347.65 K	844.68
348.15 K	844.19
348.65 K	843.7
349.15 K	843.21
349.65 K	842.72
350.15 K	842.23
350.65 K	841.75
351.15 K	841.26
351.65 K	840.76
352.15 K	840.27
352.65 K	839.78
353.15 K	839.29
353.65 K	838.8
354.15 K	838.31
354.65 K	837.81
355.14 K	837.32
355.65 K	836.83
356.15 K	836.33
356.64 K	835.84
357.15 K	835.35
357.65 K	834.85
358.14 K	834.36
358.64 K	833.86
359.14 K	833.37
359.64 K	832.87
360.14 K	832.38
360.64 K	831.88
361.14 K	831.38
361.65 K	830.89
362.15 K	830.39
362.65 K	829.89
363.15 K	829.4

— the NIST ThermoML archive (doi:10.1016/j.tca.2006.01.013)
